The target in one assay is T1, MMP-2 (Homo sapiens, UniProt P08253).
T1 construct: made in house; host or cells: MMP-2-transfected p2AHT2 cells
T1 sequence (P08253 110-660): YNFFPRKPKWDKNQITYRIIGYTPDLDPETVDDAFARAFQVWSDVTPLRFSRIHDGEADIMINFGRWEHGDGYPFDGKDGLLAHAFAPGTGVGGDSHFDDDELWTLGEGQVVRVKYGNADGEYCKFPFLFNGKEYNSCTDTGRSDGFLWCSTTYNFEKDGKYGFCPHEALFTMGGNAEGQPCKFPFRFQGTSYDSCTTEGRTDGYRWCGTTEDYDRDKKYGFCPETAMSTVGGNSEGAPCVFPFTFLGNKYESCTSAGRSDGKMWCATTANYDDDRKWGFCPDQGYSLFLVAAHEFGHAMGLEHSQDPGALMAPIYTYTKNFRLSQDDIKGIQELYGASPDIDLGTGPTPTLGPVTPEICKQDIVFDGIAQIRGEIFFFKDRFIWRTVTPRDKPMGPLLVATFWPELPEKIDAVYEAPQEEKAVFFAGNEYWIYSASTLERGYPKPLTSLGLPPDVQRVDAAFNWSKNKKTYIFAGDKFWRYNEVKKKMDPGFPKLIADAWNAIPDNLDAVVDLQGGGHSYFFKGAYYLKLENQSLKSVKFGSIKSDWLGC
The assay is described as follows: In vitro MMP inhibition, IC50 determination (fluorogenic substrate I). In kind it is biochemical. Conditions: value in parentheses; read-out: MMP-2 (IC-50).
Turning to `CCCCOc1ccc(N2CCN(S(=O)(=O)C3(C(=O)NO)CCN(C(=O)CCC)CC3)CC2)cc1` [Example 290], the IC50 turned out to be 59.5 nM.

The assay is the same for the next values; noted with them: value in parenthesis; read-out: MMP-2 (IC-50).
Turning to `CCOCCCc1ccc(N2CCN(S(=O)(=O)C3(C(=O)NO)CCN(CCOC)CC3)CC2)cc1` [Example 179], the IC50 amounted to 1.02 nM. `COCCCc1ccc(N2CCN(S(=O)(=O)C3(C(=O)NO)CCN(CCOC)CC3)CC2)cc1` [Example 180]: the IC50 amounted to 2.14 nM. On to `COCCN1CCC(C(=O)NO)(S(=O)(=O)N2CCN(c3ccc(CC4CCCCC4)cc3)CC2)CC1` [Example 181], for which the IC50 turned out to be 10.2 nM.

As for `COCCN1CCC(C(=O)NO)(S(=O)(=O)N2CCN(c3ccc(CCC4CCCC4)cc3)CC2)CC1` [Example 182], the IC50 came out at 0.12 nM.

As for `COCCN1CCC(C(=O)NO)(S(=O)(=O)N2CCN(c3ccc(CC4CCC4)cc3)CC2)CC1` [Example 183], the IC50 was 2.31 nM. Consider `CCOc1ccc(N2CCN(S(=O)(=O)C3(C(=O)NO)CCN(CCOC)CC3)CC2)cc1F` [Example 184], for which the IC50 is 0.65 nM.

On to `CCCOc1ccc(N2CCN(S(=O)(=O)C3(C(=O)NO)CCN(CCOC)CC3)CC2)cc1F` [Example 185], for which the IC50 came out at 0.59 nM. Turning to `COCCN1CCC(C(=O)NO)(S(=O)(=O)N2CCN(c3ccc(C#N)cc3)CC2)CC1` [Example 186], the IC50 came out at 3.14 nM. For `CCc1cnc(N2CCN(S(=O)(=O)C3(C(=O)NO)CCN(CCOC)CC3)CC2)nc1` [Example 187], the IC50 came out at 78 nM.

In the case of `CCC(CC)Cc1ccc(N2CCN(S(=O)(=O)C3(C(=O)NO)CCN(CCOC)CC3)CC2)cc1` [Example 188], the IC50 turned out to be 12.4 nM.
